Read-outs that look alike come from different tables or passages of the source.
Tests used:
[1] = system: DLD-1 colorectal adenocarcinoma cell lines; assay: Neutral red (NR) uptake cytotoxicity assay, DLD-1; type: cell-based, human; conditions: for IC50: Homo sapiens, read-out: IC50 DLD-1
From the text: (§1) Six human cancer cell lines and one normal cell line were used in this study. They included A549 human non-small cell lung cancer (NSCLC) cell line, obtained from the Institute for Fermentation, Osaka (IFO, Japan) and provided by Prof. Dr. Tansu Koparal (Anadolu University, Eskisehir, Turkey), SPC212 human mesothelioma cell line obtained from American Type Culture Collection (ATCC) and provided by Dr. Asuman Demiroğlu Zergeroğlu (Gebze Technical University, Kocaeli, Turkey), DLD-1 colorectal adenocarcinoma cell lines obtained from ATCC (CCL-221), Caco2 colorectal adenocarcinoma cells (ATCC, HTB-37) obtained from the ŞAP Institute of Turkey (Ankara), HepG2 hepatocarcinoma cells (ATCC, HB-8065) and MCF-7 breast adenocarcinoma cells (ATCC, HTB-22) were provided by Prof. Dr. Tansu Koparal (Anadolu University, Eskisehir, Turkey). The normal CRL2120 human skin fibroblasts were obtained from ATCC [CCD1094Sk (ATCC, CRL-2120)]. The cells were maintained as a monolayer in DMEM medium (Sigma-aldrich, Munich, Germany) medium supplemented with 10% fetal calf serum and 1% penicillin (100 U/mL)-streptomycin (100 μg/mL) in a humidified 5% CO2 atmosphere at 37 °C.
(§2) The cytotoxicity of samples was performed by NR uptake assay as previously described. This method is based on the ability of viable cells to incorporate and bind the supravital dye NR in the lysosomes. The procedure is cheaper and more sensitive than other cytotoxicity tests. […] Briefly, cells were detached by treatment with 0.25% trypsin/EDTA (Invitrogen) and an aliquot of 1 × 10^4 cells was placed in each well of a 96-well cell culture plate […]. The cells were allowed to attach overnight and subsequently treated with different concentrations of the 14 compounds. Each of the studied samples was immediately added in varying concentrations in additional 100 μL of culture medium to obtain a total volume of […]/well. After 72 h incubation in humidified 5% CO2 atmosphere at 37 °C, the medium was removed and 200 μL fresh medium containing 50 μg/mL NR was added to each well and incubation continued for an additional 3 h at 37 °C in 5% CO2 atmosphere. The dye medium was then removed and each well was then washed rapidly with 200 μL phosphate buffer saline (PBS) followed by addition of 200 μL of acetic acid-water-ethanol in water (1:49:50). The plates were kept for 15 min at room temperature to extract the dye and then shaken for a few minutes on a GFL 3012 shaker (Gesellschaft für Labortechnik mbH, Burgwedel, Germany). Absorbance was measured on ELx 808 Ultra Microplate Reader (Biotek) equipped with a 540 nm filter. Each assay was done at least three times, with three replicates each. The viability was evaluated based on a comparison with untreated cells. The IC50 values represent the sample’s concentrations required to inhibit 50% of cell proliferation and were calculated from a calibration curve by linear regression using Microsoft Excel.

[2] = system: SPC212 human mesothelioma cell line; assay: Neutral red (NR) uptake cytotoxicity assay, SPC212; type: cell-based; conditions: for IC50: Homo sapiens, 72 h
From the text: as §1, §2

[3] = system: six tested cancer cell lines (A549, SPC212, DLD-1, Caco-2, MCF-7, HepG2); assay: Neutral red uptake assay, statements over the six tested cancer cell lines; type: cell-based, human; conditions: for IC50: Homo sapiens, bound valid for all six cancer cell lines, neutral red assay
From the text: as §1, §2

MCF-7 cells [4] = assay: Flow cytometry cell cycle analysis and detection of apoptotic cells; type: cell-based, human; conditions: IC50, 72 h, non-treated cells 3.1%
Procedure: The cell-cycle analysis was performed by flow cytometry using BD cycletest^TM Plus DNA Kit Assay (BD Biosciences, San Jose, USA). The BD Cycletest™ Plus DNA kit provides a set of reagents for isolating and staining cell nuclei. Flow cytometric analysis of differentially stained cells is used to estimate the DNA index (DI) and cell-cycle phase distributions. Briefly, MCF-7 cells (3 mL, 1 × 10^5 cells/mL) were seeded into each well of 6-well plates and allowed to attach for 24 h. […] The untreated cells (control) were also included in the assay. They were further trypsinized and suspended in 1 mL PBS, then centrifuged at 400 g for 5 min at room temperature (RT). The cells were further processed according to the manufacturer protocol: addition of 250 μL of solution A (trypsin buffer), 10 min incubation at RT followed by the addition of 200 μL of solution B (trypsin inhibitor and RNAse buffer), 10 min incubation at RT followed by the addition of 200 μL of solution C (2–8 °C) (propidium iodide stain solution), 10 min on ice. The cells were further measured on a BD FACS Aria I Cell Sorter Flow Cytometer (Becton-Dickinson, Germany). For each sample, 10^4 cells were counted. For PI excitation, an argon-ion laser emitting at 488 nm was used. Cytographs were analyzed using BD FACSDiva™ Flow Cytometry Software Version 6.1.2 (Becton-Dickinson).

[5] = system: MCF-7 breast adenocarcinoma cells; assay: Neutral red (NR) uptake cytotoxicity assay, MCF-7; type: cell-based, human; conditions: for IC50: Homo sapiens, MCF7, 72 h, read-out: IC50 MCF-7
From the text: as §1, §2

[6] = system: Caco2 colorectal adenocarcinoma cells; assay: Neutral red (NR) uptake cytotoxicity assay, Caco-2; type: cell-based, human; conditions: Homo sapiens, Caco-2; neutral red assay, 72 h incubation
From the text: as §1, §2

[7] = system: HepG2 hepatocarcinoma cells; assay: Neutral red (NR) uptake cytotoxicity assay, HepG2; type: cell-based, human; conditions: for IC50: Homo sapiens, read-out: IC50 HepG2
From the text: as §1, §2

MCF-7 cells [8] = assay: Mitochondrial membrane potential (MMP) analysis, JC-1 staining, flow cytometry; type: cell-based, human; conditions: IC50 (C3), 72 h, control 4.3%
Procedure: The MMP was analyzed in MCF-7 cells by 5,5′,6,6′-tetrachloro-1,1′,3,3′-tetraethylbenzimidazolylcarbocyanine iodide) (JC-1; Biomol, Hamburg, Germany) staining as previously reported. […] Subsequently, cells were measured in a BD FACS Aria I Cell Sorter Flow Cytometer (Becton-Dickinson, Germany). The JC-1 signal was measured at an excitation of 561 nm (150 mW) and detected using a 586/15 nm band-pass filter. The signal was analyzed at 640 nm excitation (40 mW) and detected using a 730/45 nm bandpass filter. Cytographs were analyzed using BD FACSDiva™ Flow Cytometry Software Version 6.1.2 (Becton-Dickinson). All experiments were performed at least in triplicate.

[9] = system: normal CRL2120 human skin fibroblasts; assay: Neutral red (NR) uptake cytotoxicity assay, normal CRL2120 fibroblasts; type: cell-based; conditions: Skin fibroblast, 72 h incubation
From the text: as §1, §2

MCF-7 cells [10] = assay: Measurement of reactive oxygen species (ROS), DCFH-DA; type: cell-based, human; conditions: at IC50, 24 h
Procedure: This is a cell-based assay for measuring hydroxyl, peroxyl, or other reactive oxygen species activity within a cell. The assay employs the cell-permeable fluorogenic probe 2′,7′-dichlorodihydrofluorescin diacetate (DCFH-DA). DCFH-DA is diffused into cells and is deacetylated by cellular esterases to non-fluorescent 2′,7′-dichlorodihydrofluorescin (DCFH), which is rapidly oxidized to highly fluorescent 2′,7′-dichlorofluorescein (DCF) by ROS. […] After addition of 100 μL 1× DCFH-DA/DMEM solution to cells and incubation at 37 °C for 30–60 min, the fluorescence was measured using SpectraMax® M5 Microplate Reader (Molecular Devices, Biberach, Germany) at 480/530 nm. All experiments were performed at least in triplicate.

[11] = Neutral red (NR) uptake cytotoxicity assay, Caco-2; type: cell-based, human; conditions: human; IC50 in CRL2120 normal fibroblasts divided by IC50 in Caco-2; read-out: selectivity index Caco-2 (converted)
From the text: as §1, §2

[12] = system: A549 human non-small cell lung cancer (NSCLC) cell line; assay: Neutral red (NR) uptake cytotoxicity assay, A549; type: cell-based; conditions: for IC50: neutral red assay, 72 h incubation
From the text: as §1
as §2, with “lysosomes.” for “lysosomes. The procedure is cheaper and more sensitive than other cytotoxicity tests.”

[13] = system: PF-382 leukemia T-cells, MiaPaCa-2 pancreatic cells, U87MG glioblastoma-astrocytoma cells, Colo-38 skin melanoma cells, HeLa and Caski cervical carcinoma cells; parameters: method as in PMID 21886765; conditions: PF-382, MiaPaCa-2, U87MG, Colo-38, HeLa, read-out: IC50 against a panel of cancer cell lines; cited from earlier work

## COc1cccc2c1C(=O)c1c(O)c3c(c(O)c1C2=O)C[C@@](O)(C(=O)CO)C[C@@H]3O[C@H]1C[C@H](N)[C@H](O)[C@H](C)O1 [Doxorubicin, reference compound]
[1]; DLD-1, 72 h
  IC50: 0.37 ± 0.05 µM
[2]; read-out: IC50 SPC#
  IC50: 0.07 ± 0.01 µM
[3]
  IC50: < 100 µM
MCF-7 cells [4]
  Sub-G0/G1 (apoptotic) cells, % of cells: 60%
[5]
  IC50: 0.35 ± 0.05 µM
[6]
  IC50: 0.72 ± 0.13 µM
[7]; HepG2, 72 h
  IC50: 0.18 ± 0.03 µM
MCF-7 cells [8]
  MMP, gate P2 (loss / depletion of MMP): 26%
[9]
  IC50: 0.59 ± 0.01 µM
MCF-7 cells [10]
  increase in ROS levels as compared with non-treated cells: more than 2 fold

## Cc1cc(O)c2c(c1)C(=O)c1cc(O)cc(O)c1C2=O [Compound 2, emodin]
[1]; DLD-1, neutral red assay, 72 h incubation
  IC50: 77.3 ± 8.77 µM
[1]; IC50 in CRL2120 normal fibroblasts divided by IC50 in DLD-1
  selectivity index DLD-1: > 1.92
[2]; neutral red assay, 72 h incubation, read-out: IC50 SPC212
  IC50: 99.3 ± 8.46 µM
[2]; IC50 in CRL2120 normal fibroblasts divided by IC50 in SPC212
  selectivity index SPC212: > 1.49
[3]
  IC50: < 100 µM
[3]; IC50 CRL2120 / IC50 cancer cell line
  selectivity indexes (CRL2120 vs carcinoma cells), lower bound over the cancer cell lines: above 1.49
[5]; neutral red assay, 72 h incubation
  IC50: 37.6 ± 2.59 µM
[5]; IC50 in CRL2120 normal fibroblasts divided by IC50 in MCF-7
  selectivity index MCF-7: > 3.94
[11]
  selectivity ratio at 72 h: > 2.01
[6]
  IC50: 73.6 ± 3.52 µM
[7]; HepG2, neutral red assay, 72 h incubation
  IC50: 71.7 ± 4.52 µM
[7]; IC50 in CRL2120 normal fibroblasts divided by IC50 in HepG2
  selectivity index HepG2: > 2.07
[9]
  IC50: > 148 µM
[12]; Homo sapiens, A549, 72 h
  IC50: 99.3 µM
[12]; IC50 in CRL2120 normal fibroblasts divided by IC50 in A549
  selectivity index A549: > 2.23
[12]
  IC50: 66.3 ± 6.19 µM

## CC(=O)c1cc2c(o1)C(=O)c1ccccc1C2=O [2-acetylfuro-1,4-naphthoquinone]
[13]
  IC50: < 10 µM

From publication PMC5175396, “Cytotoxicity of Plumbagin, Rapanone and 12 other naturally occurring Quinones from Kenyan Flora towards human carcinoma cells” (BMC Pharmacology & Toxicology, 2016)
